# Experimental data from PubChem BioAssay (NCI).
#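 Protocol summary: plate cells (96-well), add compound at 5 concentrations, incubate 48 h, interpolate endpoints linearly. At the TGI there is no net growth.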
# How the values were obtained:
# Test in all cases: growth of human tumour cells (NCI), 48 h
# [1] = test system: HCT-116 colon
# [2] = test system: MALME-3M melanoma
# [3] = test system: BT-549 breast
# [4] = test system: OVCAR-3 ovarian
# [5] = test system: SR leukemia
# [6] = test system: NCI-H23 lung
# [7] = test system: HCT-15 colon
# [8] = test system: A498 renal
# [9] = test system: HT29 colon
# [10] = test system: M14 melanoma
# [11] = test system: MDA-MB-231 breast
# [12] = test system: SF-539 CNS
# [13] = test system: CAKI-1 renal
# [14] = test system: HL-60(TB) leukemia
# [15] = test system: SK-MEL-2 melanoma
# [16] = test system: ACHN renal
# [17] = test system: SF-268 CNS
# [18] = test system: 786-0 renal
# [19] = test system: SK-MEL-5 melanoma
# [20] = test system: A549 NSCLC
# [21] = test system: OVCAR-5 ovarian
# [22] = test system: EKVX NSCLC
# [23] = test system: SNB-19 CNS
# [24] = test system: NCI/ADR-RES ovarian
# [25] = test system: SW-620 colon
# [26] = test system: MOLT-4 leukemia
# [27] = test system: OVCAR-4 ovarian
# [28] = test system: SK-MEL-28 melanoma
# [29] = test system: MDA-N
# [30] = test system: TK-10 renal
# [31] = test system: RPMI-8226 leukemia
# [32] = test system: MDA-MB-435
# [33] = test system: K-562 leukemia
# [34] = test system: COLO 205 colon
# [35] = test system: KM12 colon
# [36] = test system: CCRF-CEM leukemia
# [37] = test system: NCI-H522 lung
# [38] = test system: U251 CNS
# [39] = test system: UO-31 renal
# [40] = test system: T-47D breast
# [41] = test system: SK-OV-3 ovarian
# [42] = test system: HOP-62 NSCLC
# [43] = test system: RXF 393 renal
# [44] = test system: HOP-92 NSCLC
# [45] = test system: LOX IMVI melanoma
# [46] = test system: NCI-H460 lung
# [47] = test system: SF-295 CNS
# [48] = test system: IGROV1 ovarian
# [49] = test system: HCC-2998 colon
# [50] = test system: NCI-H226 lung
# [51] = test system: SNB-75 CNS
# [52] = test system: OVCAR-8 ovarian
# [53] = test system: SN12C renal
# [54] = test system: PC-3 prostate
# [55] = test system: HS 578T breast
# [56] = test system: UACC-257 melanoma
# [57] = test system: UACC-62 melanoma
# [58] = test system: MCF7 breast
# [59] = test system: DU-145 prostate
smiles,measurement,setting,value
[N-]=[N+]=Nc1c(N2CCOCC2)c(Cl)nc2ccccc12,TGI,[1],> 100 µM
same,TGI,[2],> 100 µM
same,TGI,[3],> 100 µM
same,TGI,[4],> 100 µM
same,TGI,[5],> 100 µM
same,TGI,[6],> 100 µM
same,TGI,[7],> 100 µM
same,TGI,[8],> 100 µM
same,TGI,[9],72.9 µM
same,TGI,[10],> 100 µM
same,TGI,[11],> 100 µM
same,TGI,[12],> 100 µM
same,TGI,[13],> 100 µM
same,TGI,[14],> 100 µM
same,TGI,[15],> 100 µM
same,TGI,[16],> 100 µM
same,TGI,[17],> 100 µM
same,TGI,[18],> 100 µM
same,TGI,[19],49.6 µM
same,TGI,[20],> 100 µM
same,TGI,[21],> 100 µM
same,TGI,[22],> 100 µM
same,TGI,[23],> 100 µM
same,TGI,[24],> 100 µM
same,TGI,[25],> 100 µM
same,TGI,[26],> 100 µM
same,TGI,[27],> 100 µM
same,TGI,[28],> 100 µM
same,TGI,[29],> 100 µM
same,TGI,[30],> 100 µM
same,TGI,[31],> 100 µM
same,TGI,[32],> 100 µM
same,TGI,[33],> 100 µM
same,TGI,[34],> 100 µM
same,TGI,[35],88.6 µM
same,TGI,[36],> 100 µM
same,TGI,[37],> 100 µM
same,TGI,[38],> 100 µM
same,TGI,[39],> 100 µM
same,TGI,[40],> 100 µM
same,TGI,[41],> 100 µM
same,TGI,[42],> 100 µM
same,TGI,[43],> 100 µM
same,TGI,[44],> 100 µM
same,TGI,[45],> 100 µM
same,TGI,[46],> 100 µM
same,TGI,[47],> 100 µM
same,TGI,[48],> 100 µM
same,TGI,[49],> 100 µM
same,TGI,[50],> 100 µM
same,TGI,[51],> 100 µM
same,TGI,[52],> 100 µM
same,TGI,[53],> 100 µM
same,TGI,[54],> 100 µM
same,TGI,[55],> 100 µM
same,TGI,[56],78.3 µM
CC(C)(C)c1cc(OCc2nnc3sc(-c4ccc(Cl)cc4)nn23)c(Cl)cc1OCc1nnc2sc(-c3ccc(Cl)cc3)nn12,TGI,[1],26 µM
same,TGI,[2],21.8 µM
same,TGI,[3],34.6 µM
same,TGI,[4],8.73 µM
same,TGI,[5],2.91 µM
same,TGI,[6],20.6 µM
same,TGI,[7],38.8 µM
same,TGI,[8],26.1 µM
same,TGI,[9],83.6 µM
same,TGI,[10],88.6 µM
same,TGI,[11],38.3 µM
same,TGI,[12],15.2 µM
same,TGI,[13],11.4 µM
same,TGI,[14],7.36 µM
same,TGI,[15],44.9 µM
same,TGI,[16],24.4 µM
same,TGI,[17],> 100 µM
same,TGI,[18],16.5 µM
same,TGI,[19],3.47 µM
same,TGI,[20],20.4 µM
same,TGI,[21],88.9 µM
same,TGI,[22],97.9 µM
same,TGI,[23],87.6 µM
same,TGI,[24],35.6 µM
same,TGI,[25],32.9 µM
same,TGI,[26],31.2 µM
same,TGI,[27],57.8 µM
same,TGI,[28],33.3 µM
same,TGI,[29],3.46 µM
same,TGI,[57],39.1 µM
same,TGI,[30],36.8 µM
same,TGI,[31],23.6 µM
same,TGI,[33],12.5 µM
same,TGI,[34],29.3 µM
same,TGI,[35],11.1 µM
same,TGI,[37],29.9 µM
same,TGI,[38],28.7 µM
same,TGI,[39],26.1 µM
same,TGI,[40],14.9 µM
same,TGI,[41],27 µM
same,TGI,[42],51.4 µM
same,TGI,[43],19.3 µM
same,TGI,[44],16.3 µM
same,TGI,[45],54.2 µM
same,TGI,[46],12.9 µM
same,TGI,[47],18.2 µM
same,TGI,[58],10.9 µM
same,TGI,[48],21.4 µM
same,TGI,[49],9.72 µM
same,TGI,[50],54.3 µM
same,TGI,[59],31.3 µM
same,TGI,[51],9.8 µM
same,TGI,[52],19.8 µM
same,TGI,[53],> 100 µM
same,TGI,[54],> 100 µM
same,TGI,[55],> 100 µM
same,TGI,[56],40.7 µM
Cc1nn(C(=O)c2ccccc2O)c2c1C(c1ccco1)SC(N)=N2 (configuration not stated),TGI,[1],> 10 µM
same,TGI,[2],> 10 µM
same,TGI,[3],> 10 µM
same,TGI,[4],> 10 µM
same,TGI,[5],> 10 µM
same,TGI,[6],> 10 µM
same,TGI,[7],> 10 µM
same,TGI,[8],> 10 µM
same,TGI,[9],> 10 µM
same,TGI,[10],> 10 µM
same,TGI,[11],> 10 µM
same,TGI,[12],> 10 µM
same,TGI,[13],> 10 µM
same,TGI,[14],> 10 µM
same,TGI,[15],> 10 µM
same,TGI,[16],> 10 µM
same,TGI,[17],> 10 µM
same,TGI,[18],> 10 µM
same,TGI,[20],> 10 µM
same,TGI,[21],> 10 µM
same,TGI,[22],> 10 µM
same,TGI,[23],> 10 µM
same,TGI,[24],8.16 µM
same,TGI,[25],> 10 µM
same,TGI,[26],> 10 µM
same,TGI,[27],> 10 µM
same,TGI,[28],> 10 µM
same,TGI,[29],> 10 µM
same,TGI,[57],6 µM
same,TGI,[30],> 10 µM
same,TGI,[31],> 10 µM
same,TGI,[32],> 10 µM
same,TGI,[33],> 10 µM
same,TGI,[34],> 10 µM
same,TGI,[35],> 10 µM
same,TGI,[36],> 10 µM
same,TGI,[38],> 10 µM
same,TGI,[39],> 10 µM
same,TGI,[40],> 10 µM
same,TGI,[41],> 10 µM
same,TGI,[42],6.8 µM
same,TGI,[43],> 10 µM
same,TGI,[44],> 10 µM
same,TGI,[45],> 10 µM
same,TGI,[46],> 10 µM
same,TGI,[47],> 10 µM
same,TGI,[48],> 10 µM
same,TGI,[50],> 10 µM
same,TGI,[59],> 10 µM
same,TGI,[51],> 10 µM
same,TGI,[52],> 10 µM
same,TGI,[53],> 10 µM
same,TGI,[54],> 10 µM
same,TGI,[55],> 10 µM
same,TGI,[56],> 10 µM
Cc1ccc(S(=O)(=O)NC(C(=O)O)C(C)C)cc1 (configuration not stated),TGI,[1],> 100 µM
same,TGI,[2],> 100 µM
same,TGI,[3],> 100 µM
same,TGI,[4],> 100 µM
same,TGI,[5],> 100 µM
same,TGI,[6],> 100 µM
same,TGI,[7],> 100 µM
same,TGI,[8],> 100 µM
same,TGI,[9],> 100 µM
same,TGI,[10],> 100 µM
same,TGI,[11],> 100 µM
same,TGI,[13],> 100 µM
same,TGI,[15],> 100 µM
same,TGI,[16],> 100 µM
same,TGI,[17],> 100 µM
same,TGI,[18],> 100 µM
same,TGI,[19],> 100 µM
same,TGI,[20],> 100 µM
same,TGI,[21],> 100 µM
same,TGI,[22],> 100 µM
same,TGI,[23],> 100 µM
same,TGI,[24],> 100 µM
same,TGI,[25],> 100 µM
same,TGI,[26],> 100 µM
same,TGI,[27],> 100 µM
same,TGI,[28],> 100 µM
same,TGI,[29],> 100 µM
same,TGI,[57],> 100 µM
same,TGI,[30],> 100 µM
same,TGI,[32],> 100 µM
same,TGI,[33],> 100 µM
same,TGI,[35],> 100 µM
same,TGI,[36],> 100 µM
same,TGI,[37],> 100 µM
same,TGI,[38],> 100 µM
same,TGI,[39],> 100 µM
same,TGI,[40],> 100 µM
same,TGI,[42],> 100 µM
same,TGI,[43],> 100 µM
same,TGI,[44],> 100 µM
same,TGI,[45],> 100 µM
same,TGI,[46],> 100 µM
same,TGI,[47],> 100 µM
same,TGI,[48],> 100 µM
same,TGI,[49],> 100 µM
same,TGI,[50],> 100 µM
same,TGI,[59],> 100 µM
same,TGI,[51],> 100 µM
same,TGI,[52],> 100 µM
same,TGI,[53],> 100 µM
same,TGI,[54],> 100 µM
same,TGI,[55],> 100 µM
same,TGI,[56],> 100 µM
COc1ccc(CCCNC(=O)Cc2cc(OC)c(OC)cc2CO)cc1OC,TGI,[1],> 100 µM
same,TGI,[2],> 100 µM
same,TGI,[3],> 100 µM
same,TGI,[4],> 100 µM
same,TGI,[5],> 100 µM
same,TGI,[6],> 100 µM
same,TGI,[7],> 100 µM
same,TGI,[8],> 100 µM
same,TGI,[9],> 100 µM
same,TGI,[10],> 100 µM
same,TGI,[11],> 100 µM
same,TGI,[13],> 100 µM
same,TGI,[14],> 100 µM
same,TGI,[15],> 100 µM
same,TGI,[16],> 100 µM
same,TGI,[18],> 100 µM
same,TGI,[19],> 100 µM
same,TGI,[20],> 100 µM
same,TGI,[21],> 100 µM
same,TGI,[22],> 100 µM
same,TGI,[23],> 100 µM
same,TGI,[24],> 100 µM
same,TGI,[25],> 100 µM
same,TGI,[26],> 100 µM
same,TGI,[27],> 100 µM
same,TGI,[28],> 100 µM
same,TGI,[29],> 100 µM
same,TGI,[57],> 100 µM
same,TGI,[30],> 100 µM
same,TGI,[32],> 100 µM
same,TGI,[33],> 100 µM
same,TGI,[34],> 100 µM
same,TGI,[35],> 100 µM
same,TGI,[36],> 100 µM
same,TGI,[38],> 100 µM
same,TGI,[39],> 100 µM
same,TGI,[40],> 100 µM
same,TGI,[42],> 100 µM
same,TGI,[44],> 100 µM
same,TGI,[45],> 100 µM
same,TGI,[46],> 100 µM
same,TGI,[48],> 100 µM
same,TGI,[49],> 100 µM
same,TGI,[50],> 100 µM
same,TGI,[59],> 100 µM
same,TGI,[51],> 100 µM
same,TGI,[52],> 100 µM
same,TGI,[53],> 100 µM
same,TGI,[54],> 100 µM
same,TGI,[55],> 100 µM
same,TGI,[56],> 100 µM
